Data reported in US20250127772A1, “SPECIFIC TETRADENTATE COPPER CHELATORS FOR THE TREATMENT OF WILSON'S DISEASE” (GUANGDONG UNIVERSITY OF TECHNOLOGY, priority 2023, published 2025).

Test system: hepatic DEPs
Assay: Hepatic differentially expressed proteins (TMT LC-MS/MS) in treated TX mice
Format: in vivo, mouse
Protocol: In order to confirm the positive role of TDMQ20 in the treatment of TX mice, we performed proteomic experiments. Samples from three mice of each group were depicted in Table 1, The samples were treated with TMT (Tandem Mass Tag) and detected by quantitative LC-MS/MS, then the data were analyzed with ProteomeDiscoverer 2.4.1.15 (ThermoFisher Scientific). Confidence proteins were screened according to the criteria of Sequest program score greater than 0 and number of unique peptides greater than or equal to 1, and blank values were removed.
Other differentially expressed proteins (DEPs) were screened at p<0.05 in the WD mouse group compared to the control group. […] Results are reported in Table 3 and 4 for hepatic and serum proteins, respectively.

[1] = liver, 25 mg/kg/day, DEP down-regulated in WD
[2] = liver, 25 mg/kg/day, DEP up-regulated in WD
[3] = liver, 50 mg/kg/day, DEP down-regulated in WD
[4] = liver, 50 mg/kg/day, DEP up-regulated in WD

CN(C)CCNCCc1ccc2c(Cl)cc(Cl)c(N)c2n1 [TDMQ20] was tested, and the “hepatic DEPs TDMQ20-H/control ratio” value (TDMQ20 50 mg/kg) was about 1, the “hepatic DEPs after treatment” value (TDMQ20 at 25 or 50 mg/kg) was “reversed to normal values” and the “TDMQ20-M/control fold change: 2-Oxo-4-hydroxy-4-caboxy-5-ureidoimidazoline decarboxylase (Urad)” value [1] was 0.93. The “TDMQ20-M/control fold change: ATP-citrate synthase (Acly)” value [1] was 0.86, the “TDMQ20-M/control fold change: Alcohol deshydrogenase class-3 (Adh5)” value [1] was 0.89 and the “TDMQ20-M/control fold change: Aspartate-tRNA ligase, cytoplasmic (Dars1)” value [1] was 1.03. For the same compound, the “TDMQ20-M/control fold change: Charged multivesicular body protein 7 (Chmp7)” value [1] was 1.04, the “TDMQ20-M/control fold change: Cytochrome P450 2C70 (Cyp2c70)” value [1] was 0.85 and the “TDMQ20-M/control fold change: Desmin (Des)” value [1] was 0.88. The “TDMQ20-M/control fold change: Mesencephalic astrocyte-derived neurotrophic factor (Manf)” value [1] was 0.94, the “TDMQ20-M/control fold change: Nicotinamide/nicotinic acid mononucleotide adenylyltransferase 3 (Nmnat3)” value [1] was 0.97 and the “TDMQ20-M/control fold change: Progranulin (Gm)” value [1] was 1.05. The “TDMQ20-M/control fold change: Putative phospholipase B-like 2 (Plbd2)” value [1] was 0.98, the “TDMQ20-M/control fold change: Pyridoxine-5′-phosphate oxidase (Pnpo)” value [1] was 1.01 and the “TDMQ20-M/control fold change: Ribosome biogenesis protein BOP1 (Bop1)” value [1] was 1.08. The “TDMQ20-M/control fold change: Triosephosphate isomerase (Tpi1)” value [1] was 0.85, the “TDMQ20-M/control fold change: 28 kDa heat- and acid-stable phosphoprotein (Pdap1)” value [2] was 1.15 and the “TDMQ20-M/control fold change: AN1-type zinc finger protein 6 (Zfand6)” value [2] was 1.09. For the same compound, the “TDMQ20-M/control fold change: ATP synthase subunit a (Mtatp6)” value [2] was 1.04, the “TDMQ20-M/control fold change: Afadin (Afdn)” value [2] was 1.07 and the “TDMQ20-M/control fold change: Agmatinase, mitochondrial (Agmat)” value [2] was 1.15. For the same compound, the “TDMQ20-M/control fold change: Alanine glyoxylate aminotransferase (Agxt)” value [2] was 1.18, the “TDMQ20-M/control fold change: Alpha-1-antitrypsin-1-2 (Serpina1b)” value [2] was 1.09 and the “TDMQ20-M/control fold change: Cyclin-dependent kinase inhibitor 1B (Cdkn1b)” value [2] was 1.13. For the same compound, the “TDMQ20-M/control fold change: Epsin-1 (Epn1)” value [2] was 1.05, the “TDMQ20-M/control fold change: Exosome complex exonuclease RRP44 (Dis3)” value [2] was 1.16 and the “TDMQ20-M/control fold change: Histone H2A.V” value [2] was 1.14. For the same compound, the “TDMQ20-M/control fold change: Histone H2B type 1-H (H2bc9)” value [2] was 1.05, the “TDMQ20-M/control fold change: Histone H4 (H4c16)” value [2] was 1.12 and the “TDMQ20-M/control fold change: Mitochondrial dicarboxylase carrier (Slc25a10)” value [2] was 1.10. For the same compound, the “TDMQ20-M/control fold change: Mitochondrial outer membrane protein SLC25A46 (Slc25a46)” value [2] was 1.10, the “TDMQ20-M/control fold change: NADPH adrenodoxin oxidoreductase, mitochondrial (Fdxr)” value [2] was 1.10 and the “TDMQ20-M/control fold change: OCIA domain-containing protein 1 (Ociad1)” value [2] was 1.14. The “TDMQ20-M/control fold change: PRKC apoptosis WT1 regulator protein (Pawr)” value [2] was 1.10, the “TDMQ20-M/control fold change: Peroxisomal membrane protein-2 (Pxmp2)” value [2] was 1.14 and the “TDMQ20-M/control fold change: Probable ATP-dependent RNA helicase DDX17 (Ddx17)” value [2] was 1.01. For the same compound, the “TDMQ20-M/control fold change: Protein Hook homolog 1 (Hook1)” value [2] was 1.07, the “TDMQ20-M/control fold change: Protein LYRIC (Mtdh)” value [2] was 0.85 and the “TDMQ20-M/control fold change: Protein scribble homolog (Scrib)” value [2] was 1.07. The “TDMQ20-M/control fold change: Protein-glutamine gamma-glutamyltransferase K (Tgm1)” value [2] was 0.90, the “TDMQ20-M/control fold change: Regucalcin (Rgn)” value [2] was 1.07 and the “TDMQ20-M/control fold change: Ribonuclease P protein subunit p30 (Rpp30)” value [2] was 1.20. For the same compound, the “TDMQ20-M/control fold change: SET nuclear proto-oncogene (Set)” value [2] was 0.95, the “TDMQ20-M/control fold change: Sideroflexin-5 (Sfxn5)” value [2] was 1.06 and the “TDMQ20-M/control fold change: Zinc transporter 10 (Slc30a10)” value [2] was 0.94. The “TDMQ20-H/control fold change: 2-Oxo-4-hydroxy-4-caboxy-5-ureidoimidazoline decarboxylase (Urad)” value [3] was 0.96, the “TDMQ20-H/control fold change: ATP-citrate synthase (Acly)” value [3] was 0.97 and the “TDMQ20-H/control fold change: Alcohol deshydrogenase class-3 (Adh5)” value [3] was 0.86. The “TDMQ20-H/control fold change: Aspartate-tRNA ligase, cytoplasmic (Dars1)” value [3] was 1.13, the “TDMQ20-H/control fold change: Charged multivesicular body protein 7 (Chmp7)” value [3] was 0.94 and the “TDMQ20-H/control fold change: Cytochrome P450 2C70 (Cyp2c70)” value [3] was 0.88. For the same compound, the “TDMQ20-H/control fold change: Desmin (Des)” value [3] was 0.88, the “TDMQ20-H/control fold change: Mesencephalic astrocyte-derived neurotrophic factor (Manf)” value [3] was 0.91 and the “TDMQ20-H/control fold change: Nicotinamide/nicotinic acid mononucleotide adenylyltransferase 3 (Nmnat3)” value [3] was 0.94. For the same compound, the “TDMQ20-H/control fold change: Progranulin (Gm)” value [3] was 1.04, the “TDMQ20-H/control fold change: Putative phospholipase B-like 2 (Plbd2)” value [3] was 0.99 and the “TDMQ20-H/control fold change: Pyridoxine-5′-phosphate oxidase (Pnpo)” value [3] was 0.90. For the same compound, the “TDMQ20-H/control fold change: Ribosome biogenesis protein BOP1 (Bop1)” value [3] was 0.97, the “TDMQ20-H/control fold change: Triosephosphate isomerase (Tpi1)” value [3] was 0.90 and the “TDMQ20-H/control fold change: 28 kDa heat- and acid-stable phosphoprotein (Pdap1)” value [4] was 1.10. For the same compound, the “TDMQ20-H/control fold change: AN1-type zinc finger protein 6 (Zfand6)” value [4] was 0.91, the “TDMQ20-H/control fold change: ATP synthase subunit a (Mtatp6)” value [4] was 0.91 and the “TDMQ20-H/control fold change: Afadin (Afdn)” value [4] was 1.05. The “TDMQ20-H/control fold change: Agmatinase, mitochondrial (Agmat)” value [4] was 1.01, the “TDMQ20-H/control fold change: Alanine glyoxylate aminotransferase (Agxt)” value [4] was 1.03 and the “TDMQ20-H/control fold change: Alpha-1-antitrypsin-1-2 (Serpina1b)” value [4] was 1.04. For the same compound, the “TDMQ20-H/control fold change: Cyclin-dependent kinase inhibitor 1B (Cdkn1b)” value [4] was 1.10, the “TDMQ20-H/control fold change: Epsin-1 (Epn1)” value [4] was 0.93 and the “TDMQ20-H/control fold change: Exosome complex exonuclease RRP44 (Dis3)” value [4] was 1.00. For the same compound, the “TDMQ20-H/control fold change: Histone H2A.V” value [4] was 1.19, the “TDMQ20-H/control fold change: Histone H2B type 1-H (H2bc9)” value [4] was 1.07 and the “TDMQ20-H/control fold change: Histone H4 (H4c16)” value [4] was 1.15. The “TDMQ20-H/control fold change: Mitochondrial dicarboxylase carrier (Slc25a10)” value [4] was 1.00, the “TDMQ20-H/control fold change: Mitochondrial outer membrane protein SLC25A46 (Slc25a46)” value [4] was 1.11 and the “TDMQ20-H/control fold change: NADPH adrenodoxin oxidoreductase, mitochondrial (Fdxr)” value [4] was 1.04. For the same compound, the “TDMQ20-H/control fold change: OCIA domain-containing protein 1 (Ociad1)” value [4] was 1.08, the “TDMQ20-H/control fold change: PRKC apoptosis WT1 regulator protein (Pawr)” value [4] was 1.18 and the “TDMQ20-H/control fold change: Peroxisomal membrane protein-2 (Pxmp2)” value [4] was 0.98. The “TDMQ20-H/control fold change: Probable ATP-dependent RNA helicase DDX17 (Ddx17)” value [4] was 1.11, the “TDMQ20-H/control fold change: Protein Hook homolog 1 (Hook1)” value [4] was 0.94 and the “TDMQ20-H/control fold change: Protein LYRIC (Mtdh)” value [4] was 1.06. The “TDMQ20-H/control fold change: Protein scribble homolog (Scrib)” value [4] was 1.09, the “TDMQ20-H/control fold change: Protein-glutamine gamma-glutamyltransferase K (Tgm1)” value [4] was 0.84 and the “TDMQ20-H/control fold change: Regucalcin (Rgn)” value [4] was 0.91. For the same compound, the “TDMQ20-H/control fold change: Ribonuclease P protein subunit p30 (Rpp30)” value [4] was 1.20, the “TDMQ20-H/control fold change: SET nuclear proto-oncogene (Set)” value [4] was 1.01 and the “TDMQ20-H/control fold change: Sideroflexin-5 (Sfxn5)” value [4] was 0.96. The “TDMQ20-H/control fold change: Zinc transporter 10 (Slc30a10)” value [4] was 0.9.
